Results: PMC12005229, “Final results from the phase Ia/Ib study of the novel bromodomain and extra-terminal domain inhibitor, BI 894999, in patients with advanced solid tumors or diffuse large B-cell lymphoma” (ESMO Open, 2025)
Values joined by “and” are separate entries in the source; they are usually repeats but may differ in a detail not shown here. Equal values may be shown once. “Also recorded” adds a separate entry of the source.

Experiments:
BRD4-BD2 = tested on: BRD4-BD2; set-up: method as in PMID 35444289; conditions: read-out: IC50, inhibition of interaction of acetylated histone H4-derived peptide with BRD4-BD2; cited from earlier work
[1] = tested on: patients with advanced solid tumors (SCLC, CRC, mCRPC, NUT carcinoma); test: phase Ib expansion: DLTs, adverse events, exposure; conditions: for DLT / DLT grade / DLT outcome / DLT duration: individual patient events; for patients with DLTs: phase Ib schedule B
Source text: The primary endpoint for the phase Ib expansion was the number of patients who experienced DLTs during the study treatment period.
For fatigue at baseline, there had to be an increase of two or more grades.

[2] = phase Ib CRC, schedule B 2.5 mg
[3] = phase Ib NUT carcinoma, schedule B 2.5 mg
[4] = phase Ib NUT carcinoma, schedule C 6.0/3.0 mg
[5] = phase Ib SCLC, schedule B 2.5 mg
[6] = phase Ib mCRPC, schedule B 2.5 mg
[7] = phase Ib, NUT carcinoma total n = 42

SMILES: CNc1nc(-c2nc3ccc(N4CCN(C)CC4)cc3n2Cc2ccccc2)cn2c(C)nnc12 [BI 894999]
- IC50 (BRD4-BD2): 41 ± 30 nM
- most frequent DLT ([1]; phase Ia DLBCL extension and phase Ib): grade 4 thrombocytopenia
- discontinuation because of DLT ([1]; phase Ib): 3.8%
- discontinuation because of other AEs ([1]; phase Ib): 10.1%
- discontinuation because of progressive disease ([1]; phase Ib): 78.5%
- dose continuations due to AEs ([1]; phase Ib): 13.9%
- dose reductions due to AEs ([1]; phase Ib): 16.5%
- median time to first dose reduction ([1]; phase Ib): 35.5 days
- patients who died because of AEs ([1]; phase Ib): 8.9%
- patients who required a dose reduction ([1]; phase Ib): 20.3%
- patients with AEs of any grade ([1]; phase Ib): 100%
- patients with treatment-related AEs ([1]; phase Ib): 83.5%
- thrombocytopenia leading to dose discontinuation ([1]; phase Ib): 2.5%
- DLT [1, 2]: Dermatitis acneiform; also recorded: Thrombocytopenia
- DLT grade [1, 2]: 3 and 4
- DLT outcome [1, 2]: Not recovered
- DLT [1, 3]: Decreased platelet count
- DLT duration [1, 3]: 6 days
- DLT grade [1, 3]: 4
- DLT outcome [1, 3]: Not recovered
- DLT [1, 4]: Pleural effusion; also recorded: Fatigue; also recorded: Diarrhea; also recorded: Decreased platelet count
- DLT duration [1, 4]: 3 days and 16 days and 36 days
- DLT grade [1, 4]: 3 and 4
- DLT outcome [1, 4]: Recovered; also recorded: Not recovered
- DLT [1, 5]: Laryngeal inflammation; also recorded: Thrombocytopenia; also recorded: Decreased appetite; also recorded: Fatigue; also recorded: Troponin T increased
- DLT duration [1, 5]: 4 days and 9 days and 11 days and 6 days
- DLT grade [1, 5]: 3 and 4
- DLT outcome [1, 5]: Not recovered; also recorded: Recovered
- DLT [1, 6]: Thrombocytopenia; also recorded: Decreased platelet count; also recorded: Troponin T increased; also recorded: Stomatitis; also recorded: Nausea; also recorded: Decreased appetite; also recorded: Hypophosphatemia
- DLT duration [1, 6]: 40 days and 4 days and 3 days and 8 days and 12 days and 22 days
- DLT grade [1, 6]: 4 and 3
- DLT outcome [1, 6]: Not recovered; also recorded: Recovered
- patients with DLTs ([1]; CRC): 2 n
- patients with DLTs ([1]; NUT carcinoma): 2 n
- patients with DLTs ([1]; SCLC): 3 n
- patients with DLTs ([1]; mCRPC): 7 n
- ALT increase, treatment-related AE, any grade ([1]; phase Ib, CRC n = 14): 0 n (%)
- ALT increase, treatment-related AE, grade ≥3 ([1]; phase Ib, CRC n = 14): 0 n (%)
- Anemia, treatment-related AE, any grade ([1]; phase Ib, CRC n = 14): 3 (21.4) n (%)
- Anemia, treatment-related AE, grade ≥3 ([1]; phase Ib, CRC n = 14): 2 (14.3) n (%)
- Decreased appetite, treatment-related AE, any grade ([1]; phase Ib, CRC n = 14): 5 (35.7) n (%)
- Decreased appetite, treatment-related AE, grade ≥3 ([1]; phase Ib, CRC n = 14): 0 n (%)
- Decreased platelet count, treatment-related AE, any grade ([1]; phase Ib, CRC n = 14): 1 (7.1) n (%)
- Decreased platelet count, treatment-related AE, grade ≥3 ([1]; phase Ib, CRC n = 14): 1 (7.1) n (%)
- Diarrhea, treatment-related AE, any grade ([1]; phase Ib, CRC n = 14): 6 (42.9) n (%)
- Diarrhea, treatment-related AE, grade ≥3 ([1]; phase Ib, CRC n = 14): 2 (14.3) n (%)
- Dysgeusia, treatment-related AE, any grade ([1]; phase Ib, CRC n = 14): 3 (21.4) n (%)
- Dysgeusia, treatment-related AE, grade ≥3 ([1]; phase Ib, CRC n = 14): 0 n (%)
- Epistaxis, treatment-related AE, any grade ([1]; phase Ib, CRC n = 14): 1 (7.1) n (%)
- Epistaxis, treatment-related AE, grade ≥3 ([1]; phase Ib, CRC n = 14): 0 n (%)
- Fatigue, treatment-related AE, any grade ([1]; phase Ib, CRC n = 14): 4 (28.6) n (%)
- Fatigue, treatment-related AE, grade ≥3 ([1]; phase Ib, CRC n = 14): 0 n (%)
- Nausea, treatment-related AE, any grade ([1]; phase Ib, CRC n = 14): 3 (21.4) n (%)
- Nausea, treatment-related AE, grade ≥3 ([1]; phase Ib, CRC n = 14): 0 n (%)
- Number of patients with treatment-related AEs ([1]; phase Ib, CRC n = 14): 12 (85.7) n (%)
- Thrombocytopenia, treatment-related AE, any grade ([1]; phase Ib, CRC n = 14): 5 (35.7) n (%)
- Thrombocytopenia, treatment-related AE, grade ≥3 ([1]; phase Ib, CRC n = 14): 3 (21.4) n (%)
- Vomiting, treatment-related AE, any grade ([1]; phase Ib, CRC n = 14): 3 (21.4) n (%)
- Vomiting, treatment-related AE, grade ≥3 ([1]; phase Ib, CRC n = 14): 2 (14.3) n (%)
- Weight decrease, treatment-related AE, any grade ([1]; phase Ib, CRC n = 14): 1 (7.1) n (%)
- Weight decrease, treatment-related AE, grade ≥3 ([1]; phase Ib, CRC n = 14): 0 n (%)
- ALT increase, treatment-related AE, any grade [1, 7]: 5 (11.9) n (%)
- ALT increase, treatment-related AE, grade ≥3 [1, 7]: 0 n (%)
- Anemia, treatment-related AE, any grade [1, 7]: 11 (26.2) n (%)
- Anemia, treatment-related AE, grade ≥3 [1, 7]: 6 (14.3) n (%)
- Decreased appetite, treatment-related AE, any grade [1, 7]: 1 (2.4) n (%)
- Decreased appetite, treatment-related AE, grade ≥3 [1, 7]: 0 n (%)
- Decreased platelet count, treatment-related AE, any grade [1, 7]: 15 (35.7) n (%)
- Decreased platelet count, treatment-related AE, grade ≥3 [1, 7]: 7 (16.7) n (%)
- Diarrhea, treatment-related AE, any grade [1, 7]: 8 (19.0) n (%)
- Diarrhea, treatment-related AE, grade ≥3 [1, 7]: 1 (2.4) n (%)
- Dysgeusia, treatment-related AE, any grade [1, 7]: 5 (11.9) n (%)
- Dysgeusia, treatment-related AE, grade ≥3 [1, 7]: 0 n (%)
- Epistaxis, treatment-related AE, any grade [1, 7]: 1 (2.4) n (%)
- Epistaxis, treatment-related AE, grade ≥3 [1, 7]: 0 n (%)
- Fatigue, treatment-related AE, any grade [1, 7]: 10 (23.8) n (%)
- Fatigue, treatment-related AE, grade ≥3 [1, 7]: 4 (9.5) n (%)
- Nausea, treatment-related AE, any grade [1, 7]: 2 (4.8) n (%)
- Nausea, treatment-related AE, grade ≥3 [1, 7]: 0 n (%)
- Number of patients with treatment-related AEs [1, 7]: 32 (76.2) n (%)
- Thrombocytopenia, treatment-related AE, any grade [1, 7]: 10 (23.8) n (%)
- Thrombocytopenia, treatment-related AE, grade ≥3 [1, 7]: 6 (14.3) n (%)
